doi:10.1101/2025.03.14.643351, “Dissection of amino acid acquisition pathways in Borrelia burgdorferi uncovers unique physiological responses” (bioRxiv, 2025)

Molecular target: T1, BB0401 (GltPBb) (Borreliella burgdorferi, UniProt O51362)
T1 construct: gene BB_0401; full-length bb0401 ORF, IPTG-inducible from shuttle vector pibb0401 in chromosomal bb0401-deleted B. burgdorferi (bb0401^cond); intact cells; no tag mentioned
Assay: heavy-isotope uptake into conditional mutant with and without IPTG, LC-MS/MS
Type: cell-based
Conditions: BSK-II medium with unlabelled amino acids, 37 C, 2 h or 6 h uptake after 48 h or 7 d without inducer

T1 sequence (O51362 entry or part of it): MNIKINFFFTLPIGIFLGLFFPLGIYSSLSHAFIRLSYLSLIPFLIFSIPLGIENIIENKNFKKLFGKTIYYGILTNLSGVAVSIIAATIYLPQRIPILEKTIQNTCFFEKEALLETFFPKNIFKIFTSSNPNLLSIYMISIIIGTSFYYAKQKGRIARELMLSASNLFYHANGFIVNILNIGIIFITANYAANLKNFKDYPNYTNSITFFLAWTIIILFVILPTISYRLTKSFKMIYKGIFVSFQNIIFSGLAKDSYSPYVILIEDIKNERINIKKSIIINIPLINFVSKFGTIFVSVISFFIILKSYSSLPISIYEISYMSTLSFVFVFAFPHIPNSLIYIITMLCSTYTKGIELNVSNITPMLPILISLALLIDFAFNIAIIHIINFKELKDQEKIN

## N[C@@H](CC(=O)O)C(=O)O [heavy aspartate (^13C4,^15N1)]
Labelled compound (13C4,15N1), 30 mg/L
  heavy-isotope uptake into conditional mutant with and without IPTG, LC-MS/MS: more dramatic reduction in the amount of heavy labeled aspartate and glutamate imported

## N[C@@H](CCC(=O)O)C(=O)O [heavy glutamate (^13C5,^15N1)]
Labelled compound (13C5,15N1), 86.2 mg/L
  heavy-isotope uptake into conditional mutant with and without IPTG, LC-MS/MS: more dramatic reduction in the amount of heavy labeled aspartate and glutamate imported
